Common to all, as to experiment: LYPLA2 and LYPLA1 inhibition in proteome, late-stage follow-up, selectivity assay for LYPLA2 selective inhibitor project, cell lysate, gel-based ABPP, FP-Rh fluorescence, mouse brain membrane proteome (AID 652030)
Assay [1] concerns the target Acyl-protein thioesterase 2 (Mus musculus) (UniProt Q9WTL7). The following applies: emLYPLA2, at 10 µM, hits give high values.
The target in assay [2] is Acyl-protein thioesterase 2 (Homo sapiens) (UniProt O95372). The conditions noted are these: rhLYPLA2, at 10 µM, hits give high values.
Acyl-protein thioesterase 2 (Homo sapiens), sequence (O95372 whole entry, looked up): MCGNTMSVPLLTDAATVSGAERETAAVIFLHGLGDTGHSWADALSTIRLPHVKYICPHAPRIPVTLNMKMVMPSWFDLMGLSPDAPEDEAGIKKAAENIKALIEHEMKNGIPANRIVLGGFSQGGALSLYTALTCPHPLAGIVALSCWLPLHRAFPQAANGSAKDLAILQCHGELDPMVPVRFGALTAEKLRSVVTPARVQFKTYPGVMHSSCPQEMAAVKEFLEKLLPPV
The target in assay [3] is Acyl-protein thioesterase 1 (Mus musculus) (UniProt P97823). The following applies: emLYPLA1, at 10 µM, hits give high values.

SMILES strings stand for the structures. Active and inactive are the calls of the source.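 How the source made its calls: active means inhibition of 30% or more against both LYPLA2 panels while inhibition against LYPLA1 stays below 30%; inactive means under 30% on either LYPLA2 panel, or 30%+ on LYPLA1.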

The term inhibition denotes the relative decrease from the control value, in per cent. Take `O=C(Cn1cnc2ccccc2c1=O)c1ccc(OC(F)F)cc1`: the inhibition in assay [1] is 8% (inactive); in assay [2], 7% (inactive); in assay [3], 5% (inactive).
Take `COc1ccc2c(c1)C(=O)[C@H](O)[C@@H](c1ccc(OC)c(Br)c1)O2`: the inhibition in assay [1] is 55%; in assay [2] it was 47%; in assay [3], 23% (inactive).
For the compound `O=C(NCC1CCN(c2ccc(S(=O)(=O)N3CCOCC3)cc2)CC1)c1ccc(Cl)cc1`, the values for the inhibition in assay [1], in assay [2] and in assay [3] were 9% (inactive), 9% (inactive) and 3% (inactive), respectively.
As for `COc1ccc(-c2noc(CCC(=O)N3CCN(c4cccc(C(F)(F)F)c4)CC3)n2)cc1`, the inhibition in assay [1] was 14% (inactive); in assay [2], 2% (inactive); in assay [3], 1% (inactive).
Taken in the same sequence, the figures for `O=C1Nc2ccc([N+](=O)[O-])cc2OC1CCN1CCN(Cc2ccc3c(c2)OCO3)CC1` (stereo not given) were 21% (inactive), 9% (inactive) and 27% (inactive).
